The source of these data is paper PMC5740381 (Antimicrobial Agents and Chemotherapy, 2017).

Each structure is given as a SMILES string.

Experiment [1] has as its system HCV genotype 5a replicon cells. The experiment is described as follows: Drug-resistant colony selection in replicon cells. It counts as cell-based, Hepatitis C virus. The source says:
(§1) . After approximately 3 weeks of treatment, the surviving replicon colonies in one plate for each selection condition were stained with crystal violet and counted, whereas approximately 20 to 30 colonies in a replicate plate or most of the colonies, if less than 20 colonies survived the selection, were picked and further expanded for genotyping. The expanded colonies were lysed in CellsDirect lysis buffer (Invitrogen, MA), and the NS3-coding region from each colony was amplified by reverse transcription-PCR and sequenced. For genotype 1a, 1b, 2a, and 5a colonies, the full-length NS3 sequence was determined, whereas for colonies of the chimeric replicon containing the N-terminal region of NS3 from genotype 2b, 3a, 4a, or 6a, the sequence encoding the NS3 N-terminal region was determined. We defined a substitution in a replicon to be an amino acid difference in a sequence from a posttreatment sample relative to the sequence of the corresponding untreated sample. For resistance selection studies, NS3 substitutions detected at the following amino acid positions associated with resistance to the HCV PI class in >2 colonies in each replicon selection are reported: 36, 43, 54, 55, 56, 80, 122, 155, 156, and 168. In addition, substitutions detected at other amino acid positions in the NS3 protease domain in >2 colonies in each replicon selection are also reported.

Experiment [2] concerns HCV genotype 6a replicon cells. The experiment is described as follows: Drug-resistant colony selection in replicon cells. Type of experiment: cell-based, Hepatitis C virus.
Description: as §1

Experiment [3] relates to HCV genotype 3a replicon cells. The experiment is described as follows: Drug-resistant colony selection in replicon cells. Type of experiment: cell-based, Hepatitis C virus.
Description: as §1

Experiment [4] has as its system HCV genotype 2a replicon cells. Put plainly: Drug-resistant colony selection in replicon cells. Type of experiment: cell-based, Hepatitis C virus.
Description: as §1

In experiment [5] the test system is HCV replicons with genotype 2b patient proteases. The experiment is described as follows: Transient replicon assay with proteases from HCV-infected patients. Type of experiment: cell-based. To be noted: Hepatitis C virus, read-out: EC50 Range. The source says: Each of the NS3 gene sequences from genotypes 1, 2, and 4, with the exception of two genotype 2b sequences, was derived from serum or plasma from an HCV-infected patient by bulk PCR amplification, producing a population of sequences representing the viral quasispecies. Two genotype 2b sequences were synthesized based on the consensus sequences of the respective samples. One genotype 3a sequence was synthesized based on a consensus sequence from the sequences available in the Los Alamos HCV sequence database, and another genotype 3a sequence was a clonal sequence derived from a patient sample. The genotype 5a sequence (strain SA13) was synthesized based on the published sequence of the HCV isolate ([48]).
For the analysis of NS3 sequences from patients, we defined a polymorphism to be an amino acid difference in the sequence of a baseline sample relative to the sequence of the appropriate HCV subtype reference sequence: genotype 1a H77 (GenBank accession number NC_004102), genotype 1b Con1 (GenBank accession number AJ238799), genotype 2a JFH-1 (GenBank accession number AB047639), genotype 2b HC-J8 (GenBank accession number D10988), genotype 3a S52 (GenBank accession number GU814263), genotype 4a ED43 (GenBank accession number GU814265), genotype 4d QC382 (GenBank accession number FJ462437), and genotype 5a SA13 (GenBank accession number AF064490). […]

The target of the next experiment is HCV NS3/4A protease GT1b (Hepatitis C virus genotype 1b, UniProt Q9WPH5). Put plainly: HCV NS3/4A protease biochemical assay. To be noted: 30 min preincubation, read-out: Mean IC50 ± SD. From the text:
(§2) . […] Genes encoding NS3/4A were derived from laboratory strains 1a-H77 (GenBank accession number NC_004102) and 1b-N (GenBank accession number AF139594) or from clinical samples from patients infected with genotype 2a, 2b, 3a, or 4a. All patients provided written informed consent. Clinical studies were designed according to Good Clinical Practice guidelines, the Declaration of Helsinki, and applicable local regulations, with independent ethics committee or institutional review board approval for all study sites. The genotype 5a NS3/4A gene sequence was synthetically constructed based on the sequence of the clinical isolate SA13 (GenBank accession number AF064490) ([48]), whereas the genotype 6a NS3/4A gene sequence was synthetically constructed based on a consensus sequence derived from the alignment of 15 genotype 6a sequences available in GenBank. The NS3/4A genes were each cloned into the protein expression vector pET14b (Novagen, Madison, WI), and a clone with an NS3/4A protease sequence that matched the consensus sequence for each sample was subsequently selected for protein expression and purification. Protease activity was measured by continuous monitoring of the fluorescence change associated with the cleavage of a fluorogenic depsipeptide (EDANS/DABCYL) substrate using a purified recombinant HCV NS3/4A protease as described previously ([49]). […]

The next experiment concerns the target HCV NS3/4A protease GT6a (Hepatitis C virus genotype 6a, UniProt O39927). Put plainly: HCV NS3/4A protease biochemical assay. To be noted: 30 min preincubation, read-out: Mean IC50 ± SD.
Description: as §2

For another experiment, the target named is HCV NS3/4A protease GT2b (Hepatitis C virus genotype 2b, UniProt P26661). Put plainly: HCV NS3/4A protease biochemical assay. To be noted: 30 min preincubation, read-out: Mean IC50 ± SD.
Description: as §2

Consider `CC(C)(C)[C@@H]1NC(=O)O[C@@H]2CCC[C@H]2OC/C=C/C(F)(F)c2nc3ccccc3nc2O[C@@H]2C[C@@H](C(=O)N[C@]3(C(=O)NS(=O)(=O)C4(C)CC4)C[C@H]3C(F)F)N(C2)C1=O` [Glecaprevir, (3aR,7S,10S,12R,21E,24aR)-7-tert-butyl-N-[(1R,2R)-2-(difluoromethyl)-1-{[(1-methylcyclopropyl)sulfonyl]carbamoyl}cyclopropyl]-20,20-difluoro-5,8-dioxo-2,3,3a,5,6,7,8,11,12,20,23,24a-dodecahydro-1H,10H-9,12-methanocyclopenta[18,19][1,10,17,3,6]trioxadiazacyclononadecino[11,12-b]quinoxaline-10-carboxamide], for which the Colony survival in experiment [1] (10× EC50) came to 0.001%; in experiment [1] (100× EC50), 0%; in experiment [2] (10× EC50), 0.018%; in experiment [2] (100× EC50) it was 0%; in experiment [3] (10× EC50, 1 × 10^4 input cells) it was 0.1%; in experiment [3] (100× EC50) it was 0.0003%. In addition, the Colony survival in experiment [4] (10× EC50) and in experiment [4] (100× EC50) was >0.05% each time. Besides, the EC50 (as a rule, the concentration at which the effect is half-maximal) in experiment [5] lay in the range of 1.4 to 3.2 nM. In addition, the IC50 – broadly, the concentration that inhibits the measured activity by half – at HCV NS3/4A protease GT1b was determined as 8.9 ± 1.6 nM; at HCV NS3/4A protease GT6a, 11.3 ± 1.8 nM; on HCV NS3/4A protease GT2b it was 3.8 ± 0.96 nM.
